Test results taken from patent US20100190755A1, “TETRACYCLINE COMPOUNDS FOR THE TREATMENT OF RHEUMATOID ARTHRITIS AND RELATED METHODS OF TREATMENT” (priority 2008, published 2010).
Values after ≈ are worked out from the molar mass of the structure shown.

How the values were obtained:
[1] = tested on: E. coli ATCC25922 (tetracycline sensitive); assay: E. coli MIC, broth micro-dilution per CLSI guidelines (Table 3); assay type: cell-based; conditions: for MIC: Escherichia coli, E. coli ATCC25922, cation-adjusted Mueller Hinton broth
[2] = Pharmacokinetics in rats after i.v. and oral dosing; assay type: in vivo; conditions: rat; for bioavailability: male, CD/IGS, after oral dosing of 5 mg/kg, read-out: PK Parameters (Rat) % F, fraction of absorption; for bioavailability / half-life: plasma; for half-life: male CD/IGS rats, 1 mg/kg i.v. or 5 mg/kg oral, read-out: PK Parameters (Rat) T1/2 (converted)
Procedure: Pre-cannulated (jugular vein and carotid artery for i.v. group and carotid artery for oral group) male CD/IGS rats (approximately 250 g) were used. Rats were fasted overnight prior to dosing with access to food restored 2 hours after dosing. Rats were administered with approximately 0.25 mL compound (1 mg/kg dose) for i.v. route (via jugular vein over 20 seconds) or 0.5 mL solution (5 mg/kg dose) orally. Blood (300 μL) was collected in tubes with EDTA anticoagulant at various time points, centrifuged and plasma collected and stored frozen at −20° C. Animals were euthanized by CO2 following the final blood collection. Plasma was extracted (0.1% trifluoroacetic acid in 67% acetonitrile/33% water) and levels of compound quantified by HPLC/MS against a standard curve.

[3] = tested on: Protein synthesis (E. coli S30 Extract System); assay: Protein synthesis inhibition, in vitro transcription/translation assay (E. coli S30 Extract System for Circular DNA); assay type: biochemical
MCP-1 = assay: Paw extract biomarker ELISA, CIA mice: MCP-1; assay type: in vivo, mouse; conditions: paw extracts from CIA mice
Procedure: (§1) • 1. Male DBA/1 mice were immunized i.d. with an emulsion of 200 μg bovine type II collagen in Complete Freund's Adjuvant. • 2. On day 21, mice received i.d. boost of 100 μg collagen in Incomplete Freund's Adjuvant • 3. Compounds were administered i.p. daily for 7 days starting from disease onset (day 3-4 after boost). • 4. Foot swelling was measured by an engineering micrometer and disease severity was scored accordingly (1, erythema and mild swelling confined to the tarsal or ankle joint; 2, erythema and mild swelling extending from the ankle to the mid-foot; 3, erythema and moderate swelling extending from the ankle to the metatarsal joints; 4, erythema and severe swelling encompassing the ankle, foot, and digits). • 5. Change (Δ) of paw thickness=sum of paw thickness from 4 paws of a mouse (experimental)−sum of baseline paw thickness from 4 paws of the same mouse. • 6. % inhibition=cumulative A paw thickness (disease group−compound-treated group)/cumulative A paw thickness (disease group)
(§2) • 1. Paws were collected from mice after 5-7 days of dosing and dissected free of skin. • 2. The paws were then homogenized in ice-cold PBS (2 ml/4 paws/mouse) containing 1× protease inhibitor using a Polytron homogenizer. • 3. Debris and particles were removed from the homogenized samples by centrifugation. • 4. Liquid layers were collected for MMP-9, IL-1, IL-6, RANKL, MCP-1, and TNFα analysis using ELISA kits from R & D System.

S. aureus RN450 = assay: Antibacterial activity MIC, Gram+ (Table 9); assay type: cell-based; conditions: Staphylococcus aureus, CAMHB, 35° C., approximately 18 hr
In short: (§3)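 Broth microdilution in cation-adjusted Mueller Hinton broth, compound dissolved in DMSO and serially diluted from 200 μg/ml down to 0.098 μg/ml. Log-phase inoculum at final ~5×10^5 CFU/ml, incubated ~18 h at 35 °C in ambient air; MIC is the lowest concentration inhibiting growth, read by plate reader or visually.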

IL-1 = assay: Paw extract biomarker ELISA, CIA mice: IL-1; assay type: in vivo, mouse; conditions: paw extracts from CIA mice
Procedure: as §1, §2

RANKL = assay: Paw extract biomarker ELISA, CIA mice: RANKL; assay type: in vivo, mouse; conditions: paw extracts from CIA mice
Procedure: as §1, §2

[4] = tested on: collagen-induced arthritis (CIA) in male DBA/1 mice; assay: Murine collagen-induced arthritis (CIA) model, Example 2; assay type: in vivo, mouse; conditions: for % Inhibition (Change in Paw Thickness) AVG / % Inhibition (Clinical Score) AVG / Change in Paw Thickness (mm) Mean: 25 mg/kg/day i.p.; for % Inhibition (Change in Paw Thickness) AVG / % Inhibition (Clinical Score) AVG: dosed after disease onset; for EC50 in inflammation suppression in CIA mice: i.p. daily; for Effects on reduction of paw swelling and clinical score compared to either minocycline or methotrexate / joint inflammation when administered after disease onset: murine CIA model
Procedure: Four non-antibacterial analogues of minocycline (J, W, AF and AT) were synthesized and tested in the murine model of the disease, collagen-induced arthritis (CIA) (See supra). Male DBA/1 mice were immunized intradermally with 200 μg of bovine type II collagen and boosted with collagen three weeks later. Minocycline and four non-antibacterial minocycline derivatives were administered i.p. beginning after disease onset. Paw thickness was measured and animals were scored daily.
as §1

IL-6 = assay: Paw extract biomarker ELISA, CIA mice: IL-6; assay type: in vivo, mouse; conditions: paw extracts from CIA mice
Procedure: as §1, §2

[5] = tested on: cytokines (IL-1, IL-6, RANKL and MCP-1) and a matrix metalloproteinase (MMP-9); assay: Paw extract biomarker ELISA, CIA mice: whole panel (statements in words); assay type: in vivo, mouse
Procedure: as §1, §2

[6] = tested on: collagen-induced arthritis (CIA) in male DBA/1 mice; assay: CIA model, Example 3 (cumulative scores vs untreated controls); assay type: in vivo; conditions: Mus musculus
In short: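 Immunised intradermally with bovine type II collagen in CFA and boosted at day 21 in IFA. After onset, tetracycline derivatives given daily i.p. or orally for 8 to 15 days. Daily visual inflammation scores (0–4 scale) and micrometer paw thickness summed into cumulative scores.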

E. coli 25922 = assay: Antibacterial activity MIC, Gram- (Table 9); assay type: cell-based; conditions: Escherichia coli, CAMHB, 35° C., approximately 18 hr
In short: as §3

MMP-9 = assay: Paw extract biomarker ELISA, CIA mice: MMP-9; assay type: in vivo, mouse; conditions: paw extracts from CIA mice
Procedure: as §1, §2

Compound	anti-bacterial activity compared to minocycline [1]	MIC [1] [µg/mL]	bioavailability [2] [%]	bio-available after oral dosing in rats [2]	half-life [2] [h]	IC50 [3] [µM]	MIC (S. aureus RN450) [µg/mL]	% Inhibition (Change in Paw Thickness) AVG [4] [%]	% Inhibition (Clinical Score) AVG [4] [%]	EC50 in inflammation suppression in CIA mice [4] [mg/kg/day i.p.]	Change in Paw Thickness (mm) Mean ([4]; day 1 of dosing) [mm]	Change in Paw Thickness (mm) Mean ([4]; day 2 of dosing) [mm]	Change in Paw Thickness (mm) Mean ([4]; day 3 of dosing) [mm]	Change in Paw Thickness (mm) Mean ([4]; day 4 of dosing) [mm]	Change in Paw Thickness (mm) Mean ([4]; day 5 of dosing) [mm]	Change in Paw Thickness (mm) Mean ([4]; day 6 of dosing) [mm]	Change in Paw Thickness (mm) Mean ([4]; day 7 of dosing) [mm]	Change in Paw Thickness (mm) Mean ([4]; day 8 of dosing) [mm]	Effects on reduction of paw swelling and clinical score compared to either minocycline or methotrexate [4]	joint inflammation when administered after disease onset [4]	further results
CCc1cc(N(C)C)c2c(c1O)C(=O)C1=C(O)[C@]3(O)C(=O)C(C(N)=O)=C(O)C[C@@H]3C[C@@H]1C2 [Compound AF]	no anti-bacterial activity	> 64	77	bio-available	3.1	> 100	1 (≈ 2.26 µM)	62	42	12	0.55	0.39	0.61	0.49	0.46	0.38	0.42	0.54	greater	inhibited joint inflammation	Percent level of Biomarker Tissue [c] Compared to Untreated Control, MCP-1 AVG (MCP-1): 43%; Percent level of Biomarker Tissue [c] Compared to Untreated Control, IL-1 AVG (IL-1): 55%; Percent level of Biomarker Tissue [c] Compared to Untreated Control, RANKL AVG (RANKL): 38%; Percent level of Biomarker Tissue [c] Compared to Untreated Control, IL-6 AVG (IL-6): 35%; inhibition of inflammatory/osteoclastic cytokines (MMP-9, IL-1, IL-6, MCP-1, RANKL) in vivo [5]: better than minocycline; inhibition in vivo at 6 mg/kg [6]: 28%; inhibition in vivo at 12 mg/kg [6]: 49%; inhibition in vivo at 35 mg/kg ([6]; Dose 35 mg/kg): 62%; MIC (E. coli 25922): > 64 µg/mL; Percent level of Biomarker Tissue [c] Compared to Untreated Control, MMP-9 AVG (MMP-9): 113%
CN(C)c1cc(-c2cccn2C)c(O)c2c1C[C@H]1C[C@H]3CC(O)=C(C(N)=O)C(=O)[C@@]3(O)C(O)=C1C2=O [Compound AT]	no anti-bacterial activity	> 64	42	bio-available	6.4	> 100	1 (≈ 2.03 µM)	81	70	12	0.94	0.57	0.55	0.11	0.05	0.27	−0.01	−0.08	greater	inhibited joint inflammation	inhibition of inflammatory/osteoclastic cytokines (MMP-9, IL-1, IL-6, MCP-1, RANKL) in vivo [5]: better than minocycline; inhibition in vivo at 6 mg/kg [6]: 45%; inhibition in vivo at 12 mg/kg [6]: 49%; inhibition in vivo at 25 mg/kg [6]: 81%; MIC (E. coli 25922): > 64 µg/mL
CC(C)c1cc(N(C)C)c2c(c1O)C(=O)C1=C(O)[C@]3(O)C(=O)C(C(N)=O)=C(O)[C@@H](N(C)C)[C@@H]3C[C@@H]1C2 [Compound J]	no anti-bacterial activity	> 64	65	bio-available	2.5	> 100	2 (≈ 4 µM)	71	45	14	0.47	0.39	0.33	0.48	0.36	0.37	0.50	0.65	greater	inhibited joint inflammation	Percent level of Biomarker Tissue [c] Compared to Untreated Control, MCP-1 AVG (MCP-1): 60%; Percent level of Biomarker Tissue [c] Compared to Untreated Control, IL-1 AVG (IL-1): 52%; Percent level of Biomarker Tissue [c] Compared to Untreated Control, RANKL AVG (RANKL): 32%; Percent level of Biomarker Tissue [c] Compared to Untreated Control, IL-6 AVG (IL-6): 68%; inhibition of inflammatory/osteoclastic cytokines (MMP-9, IL-1, IL-6, MCP-1, RANKL) in vivo [5]: better than minocycline; inhibition in vivo at 12 mg/kg [6]: 34%; inhibition in vivo at 25 mg/kg [6]: 71%; MIC (E. coli 25922): > 64 µg/mL; Percent level of Biomarker Tissue [c] Compared to Untreated Control, MMP-9 AVG (MMP-9): 68%
